Data: paper PMC11274128, “Modification and Synergistic Studies of a Novel Frog Antimicrobial Peptide against Pseudomonas aeruginosa Biofilms” (Antibiotics, 2024)
Values after ≈ are worked out from the molar mass of the structure shown. Where two headings read alike, the source gives them in different places. Bridge positions count the residues as written; N and C are the ends. Peptide text beside a SMILES is read from it.

Legend:
MRSA (NCTC 12493) = test: microbe, parasite or virus in culture; assay type: cell-based, methicillin-resistant Staphylococcus aureus; conditions: planktonic MRSA NCTC 12493; for MIC: 37 °C, nine repeats of three independent experiments; for MBC: lowest concentration killing 99.9% of inoculum
From the text: (§1) The minimum inhibitory concentration (MIC) is the minimum concentration of an antimicrobial agent that prevents the visible growth of a bacterium or bacteria. The MIC is an important piece of data for research on new antimicrobial agents and helps in the effective selection of antibiotics to improve the success of treatment. The minimum bactericidal concentration (MBC) is defined as the lowest antibiotic concentration that kills 99.9% of the inoculum. This study mainly contained eight different microorganisms, which were Staphylococcus aureus (ATCC 6538), methicillin-resistant Staphylococcus aureus (NCTC 12493), Enterococcus faecalis (NCTC 12697), Escherichia coli (ATCC 8739), Klebsiella pneumoniae (ATCC 43816), Pseudomonas aeruginosa (ATCC CRM 9027), Acinetobacter baumannii (BAA 747), and Candida albicans (ATCC 10231). The bacteria were incubated in the compatible medium at 37 °C overnight.

[1] = system: K. pneumoniae (ATCC 43816); test: microbe, parasite or virus in culture; assay type: cell-based, Klebsiella pneumoniae; conditions: planktonic K. pneumoniae ATCC 43816; for MIC: 37 °C, nine repeats of three independent experiments; for MBC: lowest concentration killing 99.9% of inoculum
From the text: as §1

A. baumannii (BAA 747) = test: microbe, parasite or virus in culture; assay type: cell-based, Acinetobacter baumannii; conditions: planktonic A. baumannii BAA 747; for MIC: 37 °C, nine repeats of three independent experiments; for MBC: lowest concentration killing 99.9% of inoculum
From the text: as §1

G− Bacteria = test: Geometric mean of MICs and TI value; assay type: cell-based; conditions: geometric mean of MICs against tested Gram-negative bacteria
Method: (§2) The therapeutic potential of antimicrobial agents was valued based on their selectivity toward bacteria in reference to erythrocytes. The TI value was calculated from the results of antibacterial and haemolysis experiments of peptides using the following formula:TI value = HC10 / GMMICs.
(§3) GM was the geometric mean of MICs against all tested bacteria.

Yeast = test: Geometric mean of MICs and TI value; assay type: cell-based, Candida albicans; conditions: C. albicans ATCC 10231
Method: as §2, §3

[2] = system: S. aureus ATCC 6538 biofilm; assay type: cell-based, Staphylococcus aureus; conditions: for MBIC: lowest concentration inhibiting at least 90% of biofilm formation; for MBEC: minimum concentration eradicating at least 99% of the biofilm
From the text: (§4) The minimum bactericidal concentration (MBC) is defined as the lowest antibiotic concentration that kills 99.9% of the inoculum. The minimum biofilm inhibitory concentration (MBIC) is the lowest concentration that inhibits at least 90% of the formation of biofilm. The minimum biofilm eradication concentration (MBEC) is the minimum concentration that can eradicate at least 99% of the biofilm. In addition to the eight microorganisms described previously, this experiment was also applied to P. aeruginosa (ATCC 27853, ATCC BAA-2108, P. aeruginosa 01, P. aeruginosa 14).

MRSA NCTC 12493 biofilm [3] = assay type: cell-based, methicillin-resistant Staphylococcus aureus; conditions: for MBIC: lowest concentration inhibiting at least 90% of biofilm formation; for MBEC: minimum concentration eradicating at least 99% of the biofilm
From the text: as §4

[4] = system: E. faecalis NCTC 12697 biofilm; assay type: cell-based, Enterococcus faecalis; conditions: for MBIC: lowest concentration inhibiting at least 90% of biofilm formation; for MBEC: minimum concentration eradicating at least 99% of the biofilm
From the text: as §4

[5] = system: E. faecalis NCTC 12697 biofilm; test: Peptide and antibiotic co-administration MBIC checkerboard assay; assay type: cell-based, Enterococcus faecalis; conditions: 24 h, crystal violet, 595 nm
From the text: (§5) The plate was then carefully cleaned under running water.

[6] = system: P. aeruginosa ATCC CRM 9027 biofilm; test: as above; assay type: cell-based, Pseudomonas aeruginosa; conditions: 24 h, crystal violet, 595 nm
From the text: as §5

[7] = system: A. baumannii BAA 747 biofilm; conditions: checkerboard MBIC, 24 h, crystal violet, 595 nm
Method: (§6) Parameter fractional inhibitory concentration indices (FICIs) were used to evaluate the synergistic effect, and the value of that was calculated as follows:FICI = FICa + FICb FICa = MIC combination peptide/MIC single peptide FICb = MIC combination antibiotic/MIC single antibiotic
(§7) The FICI value was interpreted as “synergy” (FICI ≤ 0.5), “no interaction” (0.5 < FICI ≤ 4), or “antagonism” (FICI > 4).
(§8) The bacteria were also cultured, subcultured, diluted, and incubated as the methods of the MBIC assay. All experimental groups were included in a peptide and antibiotic co-administration of MIC assay. To ensure that the mixture was evenly dispersed, the plate was placed in a shaker and incubated for 24 h at 37 and 220× g. The plate was twice rinsed with 200 µL of PBS solution following a 24 h incubation period with peptides and diluted bacterial cultures. Each well received a separate addition of 100 μL of methanol and 0.1% crystal violet solution (Sigma-Aldrich, London, UK), which was left there for 20 min. The plate was then carefully cleaned under running water. Following the drying process, each well received 160 µL of acetic acid (33% in dd water, Sigma-Aldrich, UK). Additionally, the absorbance was measured at λ = 595 nm using the Synergy HT plate reader. FICI values were calculated and identified for our peptide and antibiotic co-administration of MIC assay.

[8] = system: K. pneumoniae ATCC 43816 biofilm; conditions: checkerboard MBIC, 24 h, crystal violet, 595 nm
Method: as §6, §7, §8

MRSA NCTC 12493 biofilm [9] = conditions: checkerboard MBIC, 24 h, crystal violet, 595 nm
Method: as §6, §7, §8

P. aeruginosa 01 biofilm = conditions: checkerboard MBIC, 24 h, crystal violet, 595 nm
Method: as §6, §7, §8

P. aeruginosa 14 biofilm = conditions: checkerboard MBIC, 24 h, crystal violet, 595 nm
Method: as §6, §7, §8

[10] = system: P. aeruginosa ATCC 27853 biofilm; conditions: checkerboard MBIC, 24 h, crystal violet, 595 nm
Method: as §6, §7, §8

[11] = system: P. aeruginosa ATCC BAA-2108 biofilm; conditions: checkerboard MBIC, 24 h, crystal violet, 595 nm
Method: as §6, §7, §8

[12] = system: S. aureus ATCC 6538 biofilm; conditions: checkerboard MBIC, 24 h, crystal violet, 595 nm
Method: as §6, §7, §8

horse red blood cells = horse red blood cells in PBS, 37 °C, 2 h, absorbance 570 nm; positive control 0.1% Triton
Method: The pure peptide was dissolved in PBS and then two-fold diluted to obtain a series of concentrations: 512, 256, 128, 64, 32, 16, 8, 4, and 2 μM. A positive control (0.1% Triton) and blank control (PBS) were used. Two millilitres of fresh horse red blood cells were washed in PBS until the supernatant became colourless and clear, and the mixture was then thoroughly mixed. Each mixture contained 100 μL of peptide solution or controls and 100 μL of horse red blood cells, which were then incubated at 37 °C for 2 h and centrifuged at 930× g for 10 min. Subsequently, 100 μL of supernatant from each tube was transferred into a 96-well plate, and the plate reader measured the absorbance at a wavelength of 570 nm. The haemolysis rate was calculated using the following formula:Percentage Haemolysis= (ASample − ABlank)/(APositive − ABlank) × 100%

[13] = peptide combined with gentamicin

SMILES	MIC (MRSA (NCTC 12493))	MBC (MRSA (NCTC 12493))	MIC [1]	MBC [1]	GM (geometric mean of MICs), G− Bacteria (G− Bacteria)	GM (geometric mean of MICs), Yeast (Yeast)	MBIC [2]	MBEC [2]	MBIC (MRSA NCTC 12493 biofilm [3])	MBEC (MRSA NCTC 12493 biofilm [3])	MBIC [4]	MBEC [4]	Biofilm FICI ([5]; peptide combined with cefepime)	Biofilm FICI ([6]; peptide combined with cefepime)	Biofilm FICI [6, 13]	Biofilm FICI ([7]; peptide combined with cefepime)	Biofilm FICI [7, 13]	Biofilm FICI ([8]; peptide combined with cefepime)	Biofilm FICI [8, 13]	Biofilm FICI (MRSA NCTC 12493 biofilm [9]; peptide combined with cefepime)	further results
CC[C@H](C)[C@H](NC(=O)[C@H](CCCCN)NC(=O)[C@H](CCCCN)NC(=O)CNC(=O)[C@H](C)NC(=O)[C@H](CCCNC(=N)N)NC(=O)[C@H](CC(C)C)NC(=O)[C@@H](NC(=O)[C@H](C)NC(=O)[C@H](CCCNC(=N)N)NC(=O)[C@H](CC(C)C)NC(=O)[C@H](CC(C)C)NC(=O)CN)C(C)C)C(=O)N[C@H](C(=O)N[C@H]1CSSC[C@@H](C(=O)O)NC(=O)[C@H](CCCNC(=N)N)NC(=O)CNC(=O)[C@H](CO)NC(=O)[C@H](CC(C)C)NC(=O)CNC1=O)C(C)C [Peptide 2170-2R] (H-GLLRAVLRAGKKIVCGLSGRC-OH; disulfide 15-21)	16 µM (≈ 34.7 µg/mL)	16 µM (≈ 34.7 µg/mL)	32 µM (≈ 69.4 µg/mL)	32 µM (≈ 69.4 µg/mL)	11.31 µM	64.00 µM	4 µM	16 µM	4 µM	16 µM	32 µM	> 128 µM	0.375	0.5	1	0.625	0.75	3	1.125	0.5	MIC (A. baumannii (BAA 747); read-out: MIC): 4 µM (≈ 8.67 µg/mL); MBC (A. baumannii (BAA 747); read-out: MBC): 8 µM (≈ 17.3 µg/mL); Biofilm FICI (MRSA NCTC 12493 biofilm [9]; [13]): 1.125; Biofilm FICI (P. aeruginosa 01 biofilm; peptide combined with cefepime): 0.5; Biofilm FICI (P. aeruginosa 01 biofilm; [13]): 1; Biofilm FICI (P. aeruginosa 14 biofilm; peptide combined with cefepime): 0.375; Biofilm FICI (P. aeruginosa 14 biofilm; [13]): 1; Biofilm FICI ([10]; peptide combined with cefepime): 0.5; Biofilm FICI [10, 13]: 0.25; Biofilm FICI ([11]; peptide combined with cefepime): 1; Biofilm FICI [11, 13]: >3; Biofilm FICI ([12]; peptide combined with cefepime): 1; Biofilm FICI [12, 13]: 0.25; HC10 (horse red blood cells): >256 µM
CC[C@H](C)[C@H](NC(=O)[C@H](CCCCN)NC(=O)[C@H](CCCCN)NC(=O)CNC(=O)[C@H](C)NC(=O)CNC(=O)[C@H](CC(C)C)NC(=O)[C@@H](NC(=O)CNC(=O)[C@H](CO)NC(=O)[C@H](CC(C)C)NC(=O)[C@H](CC(C)C)NC(=O)CN)C(C)C)C(=O)N[C@H](C(=O)N[C@H]1CSSC[C@@H](C(=O)O)NC(=O)[C@H](CCCNC(=N)N)NC(=O)CNC(=O)[C@H](CO)NC(=O)[C@H](CC(C)C)NC(=O)CNC1=O)C(C)C [Nigrosin-6VL] (H-GLLSGVLGAGKKIVCGLSGRC-OH; disulfide 15-21)	> 128 µM	> 128 µM	128 µM (≈ 254 µg/mL)	128 µM (≈ 254 µg/mL)	90.51 µM	128.00 µM	128/>128 µM	128/>128 µM	>128/>128 µM	>128/>128 µM	>128/>128 µM	>128/>128 µM	0.5	0.3125	0.5	0.5	0.5	1.25	0.5	0.75	MIC (A. baumannii (BAA 747)): > 128 µM; MBC (A. baumannii (BAA 747)): > 128 µM; Biofilm FICI [5, 13]: 0.5; Biofilm FICI (MRSA NCTC 12493 biofilm [9]; [13]): 0.375; Biofilm FICI (P. aeruginosa 01 biofilm; peptide combined with cefepime): 0.625; Biofilm FICI (P. aeruginosa 01 biofilm; [13]): 0.625; Biofilm FICI (P. aeruginosa 14 biofilm; peptide combined with cefepime): 0.25; Biofilm FICI (P. aeruginosa 14 biofilm; [13]): 0.5; Biofilm FICI ([10]; peptide combined with cefepime): 1; Biofilm FICI [10, 13]: 0.25; Biofilm FICI ([11]; peptide combined with cefepime): 0.625; Biofilm FICI [11, 13]: 1; Biofilm FICI ([12]; peptide combined with cefepime): 1; Biofilm FICI [12, 13]: 0.5; HC10 (horse red blood cells): >256 µM
